Assay results taken from ChEMBL document CHEMBL1133568 (J Med Chem, 2000).
The source made the active and inactive calls. The calls are words filed in the database; no cut-off is given here.

What was measured:
[1] = biological target: T1, Progesterone receptor (Rattus norvegicus) (UniProt Q63449); assay: Incomplete abortifacient effect at 0.1 mg/animal/day in pregnant rats; type: functional
T1 sequence (whole entry): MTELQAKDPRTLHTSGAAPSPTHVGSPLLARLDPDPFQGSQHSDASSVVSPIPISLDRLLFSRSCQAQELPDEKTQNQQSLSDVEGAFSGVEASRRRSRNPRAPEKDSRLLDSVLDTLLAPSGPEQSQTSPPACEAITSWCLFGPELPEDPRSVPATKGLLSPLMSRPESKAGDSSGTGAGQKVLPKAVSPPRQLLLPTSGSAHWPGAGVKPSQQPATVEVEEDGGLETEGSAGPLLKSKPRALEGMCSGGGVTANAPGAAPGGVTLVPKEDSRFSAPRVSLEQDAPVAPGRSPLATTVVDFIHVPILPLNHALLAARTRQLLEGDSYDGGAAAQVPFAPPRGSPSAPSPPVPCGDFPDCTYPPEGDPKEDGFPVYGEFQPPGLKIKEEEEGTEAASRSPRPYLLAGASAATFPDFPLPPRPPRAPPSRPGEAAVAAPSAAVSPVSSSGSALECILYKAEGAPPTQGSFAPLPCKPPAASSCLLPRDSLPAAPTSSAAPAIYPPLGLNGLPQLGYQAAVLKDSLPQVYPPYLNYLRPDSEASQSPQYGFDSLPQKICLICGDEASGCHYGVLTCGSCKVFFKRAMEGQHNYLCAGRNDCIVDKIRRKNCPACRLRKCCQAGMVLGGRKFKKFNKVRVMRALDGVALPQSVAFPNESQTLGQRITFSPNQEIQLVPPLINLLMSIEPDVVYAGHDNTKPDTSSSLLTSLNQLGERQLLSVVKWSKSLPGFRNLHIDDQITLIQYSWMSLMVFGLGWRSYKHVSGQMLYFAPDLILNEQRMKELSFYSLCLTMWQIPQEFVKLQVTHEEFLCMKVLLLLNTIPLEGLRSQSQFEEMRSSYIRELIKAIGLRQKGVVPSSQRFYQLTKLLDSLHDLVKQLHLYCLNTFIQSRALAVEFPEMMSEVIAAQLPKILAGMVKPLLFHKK

[2] = biological target: T1, Progesterone receptor (Rattus norvegicus); assay: Full abortifacient effect at 0.03 mg/animal/day in pregnant rats; type: functional
[3] = biological target: T2, Glucocorticoid receptor (Mus musculus, UniProt P06537); assay: In vitro antagonist potency in transactivation assay in NIH3T3 cells expressing glucocorticoid receptor; type: functional, cell-based
T2 sequence (P06537 whole entry): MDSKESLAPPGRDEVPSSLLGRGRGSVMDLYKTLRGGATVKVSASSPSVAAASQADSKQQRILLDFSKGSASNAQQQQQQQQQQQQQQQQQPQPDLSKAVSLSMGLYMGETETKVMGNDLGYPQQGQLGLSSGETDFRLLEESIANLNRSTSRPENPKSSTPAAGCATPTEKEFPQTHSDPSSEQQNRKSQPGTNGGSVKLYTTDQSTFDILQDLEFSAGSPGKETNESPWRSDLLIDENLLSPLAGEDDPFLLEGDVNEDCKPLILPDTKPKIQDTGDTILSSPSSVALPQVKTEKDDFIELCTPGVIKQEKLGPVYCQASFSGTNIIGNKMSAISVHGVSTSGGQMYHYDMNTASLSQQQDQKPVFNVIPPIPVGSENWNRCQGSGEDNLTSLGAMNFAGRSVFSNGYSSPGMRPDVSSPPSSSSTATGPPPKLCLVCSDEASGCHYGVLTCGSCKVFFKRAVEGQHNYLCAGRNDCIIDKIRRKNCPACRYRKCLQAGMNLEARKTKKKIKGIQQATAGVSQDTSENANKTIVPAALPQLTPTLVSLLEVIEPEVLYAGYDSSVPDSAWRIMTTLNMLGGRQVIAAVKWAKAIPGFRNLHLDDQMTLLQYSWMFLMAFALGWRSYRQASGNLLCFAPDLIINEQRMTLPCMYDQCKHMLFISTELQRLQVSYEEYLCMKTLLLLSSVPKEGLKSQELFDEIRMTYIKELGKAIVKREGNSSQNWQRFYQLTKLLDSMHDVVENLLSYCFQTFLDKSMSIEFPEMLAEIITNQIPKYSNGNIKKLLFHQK

[4] = biological target: T3, Glucocorticoid receptor (Rattus norvegicus) (UniProt P06536); assay: Relative binding affinity against Glucocorticoid receptor of rat after 2 hr incubation as percent binding compared to Dexamethasone
T3 sequence (whole entry): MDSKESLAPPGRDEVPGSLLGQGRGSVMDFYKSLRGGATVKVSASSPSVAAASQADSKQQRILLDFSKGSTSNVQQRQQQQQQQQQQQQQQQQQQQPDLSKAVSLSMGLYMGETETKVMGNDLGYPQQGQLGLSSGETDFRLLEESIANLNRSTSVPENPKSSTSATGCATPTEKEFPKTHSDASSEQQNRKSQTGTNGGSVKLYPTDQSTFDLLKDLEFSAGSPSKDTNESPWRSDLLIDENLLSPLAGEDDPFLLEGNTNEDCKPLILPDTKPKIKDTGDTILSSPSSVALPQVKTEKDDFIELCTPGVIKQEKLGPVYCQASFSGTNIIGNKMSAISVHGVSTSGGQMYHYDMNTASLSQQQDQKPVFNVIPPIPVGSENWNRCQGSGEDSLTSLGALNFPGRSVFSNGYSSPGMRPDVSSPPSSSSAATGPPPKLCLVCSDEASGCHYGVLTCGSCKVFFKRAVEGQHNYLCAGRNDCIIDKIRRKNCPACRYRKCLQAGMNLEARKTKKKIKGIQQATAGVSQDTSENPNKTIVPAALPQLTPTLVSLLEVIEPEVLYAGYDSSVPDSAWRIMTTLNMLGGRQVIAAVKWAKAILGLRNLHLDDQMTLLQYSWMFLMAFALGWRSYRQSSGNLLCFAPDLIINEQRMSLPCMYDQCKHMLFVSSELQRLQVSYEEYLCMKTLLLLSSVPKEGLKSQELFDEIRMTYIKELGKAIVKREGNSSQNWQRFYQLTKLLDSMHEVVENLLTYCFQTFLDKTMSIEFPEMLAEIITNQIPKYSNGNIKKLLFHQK

[5] = biological target: T1, Progesterone receptor (Rattus norvegicus); assay: Incomplete abortifacient effect at 0.03 mg/animal/day in pregnant rats; type: functional
[6] = biological target: T1, Progesterone receptor (Rattus norvegicus); assay: Full abortifacient effect at 0.3 mg/animal/day in pregnant rats; type: functional
[7] = biological target: T4, Progesterone receptor (Homo sapiens, UniProt P06401); assay: In vitro antagonist potency in transactivation assay in neuroblastoma cells expressing human PR-A progesterone receptor; type: functional, cell-based
T4 sequence (P06401 whole entry): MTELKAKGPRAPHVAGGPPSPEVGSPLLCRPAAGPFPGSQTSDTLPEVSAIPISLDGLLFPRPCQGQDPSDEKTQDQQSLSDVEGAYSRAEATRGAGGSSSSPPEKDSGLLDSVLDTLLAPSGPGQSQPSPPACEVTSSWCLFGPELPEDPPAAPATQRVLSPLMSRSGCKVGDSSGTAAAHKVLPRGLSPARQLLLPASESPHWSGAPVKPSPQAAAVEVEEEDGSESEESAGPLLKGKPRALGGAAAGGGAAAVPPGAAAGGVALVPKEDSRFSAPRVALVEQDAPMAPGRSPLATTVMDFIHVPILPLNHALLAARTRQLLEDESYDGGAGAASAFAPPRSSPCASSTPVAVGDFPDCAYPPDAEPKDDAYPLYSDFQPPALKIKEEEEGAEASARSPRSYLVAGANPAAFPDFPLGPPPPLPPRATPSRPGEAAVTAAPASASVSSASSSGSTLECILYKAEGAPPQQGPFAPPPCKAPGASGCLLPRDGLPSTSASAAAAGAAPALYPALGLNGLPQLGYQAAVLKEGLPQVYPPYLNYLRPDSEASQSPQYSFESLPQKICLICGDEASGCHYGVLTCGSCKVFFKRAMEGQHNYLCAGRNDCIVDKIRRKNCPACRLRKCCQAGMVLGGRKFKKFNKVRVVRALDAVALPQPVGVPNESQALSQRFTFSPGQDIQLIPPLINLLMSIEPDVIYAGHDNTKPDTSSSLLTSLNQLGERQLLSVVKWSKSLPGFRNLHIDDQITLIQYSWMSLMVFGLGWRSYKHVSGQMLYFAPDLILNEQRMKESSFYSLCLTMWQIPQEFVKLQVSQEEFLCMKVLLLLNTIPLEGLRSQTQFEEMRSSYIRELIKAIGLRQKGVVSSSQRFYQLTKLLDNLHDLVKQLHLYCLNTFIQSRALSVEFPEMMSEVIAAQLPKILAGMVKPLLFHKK

[8] = biological target: T5, Androgen receptor (Homo sapiens, UniProt P10275); assay: In vitro antagonist potency in transactivation assay in CV-1 cells expressing androgen receptor; type: functional, cell-based
T5 sequence (P10275 whole entry): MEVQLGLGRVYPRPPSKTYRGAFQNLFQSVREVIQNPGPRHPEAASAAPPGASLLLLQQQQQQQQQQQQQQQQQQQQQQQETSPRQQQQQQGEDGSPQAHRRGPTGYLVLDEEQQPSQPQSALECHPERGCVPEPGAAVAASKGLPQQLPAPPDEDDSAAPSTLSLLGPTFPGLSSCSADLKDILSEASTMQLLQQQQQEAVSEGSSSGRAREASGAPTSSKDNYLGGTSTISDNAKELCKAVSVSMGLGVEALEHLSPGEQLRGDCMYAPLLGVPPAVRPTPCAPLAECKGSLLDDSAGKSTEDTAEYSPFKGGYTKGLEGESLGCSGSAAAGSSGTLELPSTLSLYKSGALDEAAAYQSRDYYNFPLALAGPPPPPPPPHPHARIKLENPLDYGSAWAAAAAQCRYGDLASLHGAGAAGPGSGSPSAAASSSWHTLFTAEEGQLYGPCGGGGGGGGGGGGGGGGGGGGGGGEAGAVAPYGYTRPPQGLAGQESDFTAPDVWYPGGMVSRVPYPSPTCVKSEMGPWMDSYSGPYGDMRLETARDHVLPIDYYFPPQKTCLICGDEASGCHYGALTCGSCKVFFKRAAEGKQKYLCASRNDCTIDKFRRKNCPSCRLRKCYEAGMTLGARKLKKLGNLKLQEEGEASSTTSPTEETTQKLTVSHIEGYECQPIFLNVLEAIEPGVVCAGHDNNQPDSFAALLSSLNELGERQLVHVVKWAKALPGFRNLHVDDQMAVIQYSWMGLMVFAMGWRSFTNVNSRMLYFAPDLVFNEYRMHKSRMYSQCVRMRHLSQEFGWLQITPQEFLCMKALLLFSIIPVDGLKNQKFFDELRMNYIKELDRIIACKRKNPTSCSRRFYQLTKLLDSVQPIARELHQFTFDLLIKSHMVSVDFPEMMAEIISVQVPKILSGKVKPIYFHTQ

[9] = biological target: T3, Glucocorticoid receptor (Rattus norvegicus)
Description: Antiglucocorticoid activity in adrenalectomized young male rats after oral administration

[10] = biological target: T6, Androgen receptor (Rattus norvegicus) (UniProt P15207)
T6 sequence (whole entry): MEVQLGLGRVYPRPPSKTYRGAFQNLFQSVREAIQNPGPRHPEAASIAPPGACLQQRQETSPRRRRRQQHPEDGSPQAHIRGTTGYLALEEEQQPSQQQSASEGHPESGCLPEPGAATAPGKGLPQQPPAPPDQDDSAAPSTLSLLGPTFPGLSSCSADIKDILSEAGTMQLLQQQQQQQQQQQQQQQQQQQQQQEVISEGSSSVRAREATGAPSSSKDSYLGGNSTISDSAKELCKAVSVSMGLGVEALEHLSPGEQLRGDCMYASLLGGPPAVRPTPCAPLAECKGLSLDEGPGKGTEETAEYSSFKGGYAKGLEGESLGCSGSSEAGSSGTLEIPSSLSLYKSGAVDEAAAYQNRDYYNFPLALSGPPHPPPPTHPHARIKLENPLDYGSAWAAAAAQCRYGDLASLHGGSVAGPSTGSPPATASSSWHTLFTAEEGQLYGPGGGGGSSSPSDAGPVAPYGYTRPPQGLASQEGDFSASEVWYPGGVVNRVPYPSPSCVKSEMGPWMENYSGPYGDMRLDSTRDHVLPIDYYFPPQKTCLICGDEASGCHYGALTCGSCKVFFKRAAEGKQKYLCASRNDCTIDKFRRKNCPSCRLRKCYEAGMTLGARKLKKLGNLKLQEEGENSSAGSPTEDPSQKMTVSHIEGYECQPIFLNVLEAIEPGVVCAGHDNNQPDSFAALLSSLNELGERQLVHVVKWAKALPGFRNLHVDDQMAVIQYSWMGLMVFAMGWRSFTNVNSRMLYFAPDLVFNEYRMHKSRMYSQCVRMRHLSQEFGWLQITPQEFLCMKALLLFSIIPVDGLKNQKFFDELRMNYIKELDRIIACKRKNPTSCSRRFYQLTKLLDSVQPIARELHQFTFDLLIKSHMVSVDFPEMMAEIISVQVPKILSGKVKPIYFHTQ
Description: Antiandrogenic activity in orchidectomized young male rats after oral administration

[11] = organism: Oryctolagus cuniculus; assay: Relative binding affinity against rabbit progesterone (PR) receptor after 24 hr incubation as perent binding compared to progesterone
[12] = biological target: T6, Androgen receptor (Rattus norvegicus); assay: Relative binding affinity against androgen (AR) receptor of rat after 24 hr incubation as percent binding compared to R1881
[13] = biological target: T4, Progesterone receptor; assay: In vitro antagonist potency in transactivation assay in neuroblastoma cells expressing human PR-B progesterone receptor; type: functional, cell-based
[14] = biological target: T1, Progesterone receptor (Rattus norvegicus); assay: Incomplete abortifacient effect at 0.3 mg/animal/day in pregnant rats; type: functional
[15] = biological target: T1, Progesterone receptor (Rattus norvegicus); assay: Full abortifacient effect at 0.1 mg/animal/day in pregnant rats; type: functional
[16] = biological target: T7, Progesterone receptor (Homo sapiens) (UniProt P06401)
T7 sequence (whole entry): T4 sequence (P06401 whole entry)

[17] = biological target: T8, Glucocorticoid receptor (Mus musculus) (UniProt P06537); details: NIH3T3
T8 sequence (whole entry): T2 sequence (P06537 whole entry)
Description: In vitro agonist potency in transactivation assay in NIH3T3 cells expressing glucocorticoid receptor; NE=no effect

[18] = biological target: T7, Progesterone receptor (Homo sapiens); remark: listed apart in the source
Description: In vitro agonist potency in transactivation assay of neuroblastoma cells expressing human PR-B progesterone receptor; NE=no effect

Row | Compound | Abortion [1] [%] | Abortion [2] [%] | IC50 [3] [nM] | RBA [4] [%] | Abortion [5] [%] | Abortion [6] [%] | IC50 [7] [nM] | IC50 [8] [nM] | ED50 mg/animal/day [9] | ED50 mg/animal/day [10] | RBA [11] [%] | RBA [12] [%] | IC50 [13] [nM] | Abortion [14] [%] | Abortion [15] [%] | NE [16] | NE [17] | NE [18]
1 | CC(=O)c1ccc([C@H]2C[C@@]3(C)[C@@H](CC[C@@]3(O)C(F)(F)C(F)(F)F)[C@@H]3CCC4=CC(=O)CCC4=C32)cc1 [LONAPRISAN] | 17 | 0 | 16 | 22.2 | 0 | 100 | 0.0036 | 54 | 2 | 1.3 | 140 | 3.1 | 0.0025 | 0 | 83 |  |  | 
2 | CC#C[C@]1(O)CC[C@H]2[C@@H]3CCC4=CC(=O)CCC4=C3[C@@H](c3ccc(N(C)C)cc3)C[C@@]21C [MIFEPRISTONE] |  |  | 2.2 |  |  |  |  |  |  |  |  |  |  |  |  | inactive | inactive | inactive
